The text below walks through data of US10781203B2, “Nontoxic compounds for the treatment and prevention of herpesvirus infections” (The Penn State Research Foundation, priority 2016, dated 2020).

The pEC50 is −log10 of the EC50, conventionally taken in molar units. Read a high pEC50 as a low EC50. As usually defined, the pIC50 is the negative decadic logarithm of the IC50, by convention in mol/L.

In one data set the test system is cells. In words: Cell viability after extended treatment (trypan blue, bright field). Format: cell-based. The following applies: after 96 hours of treatment. From the text:
FIG. 3A is a growth curve analysis of HCMV (MOI=3) in untreated (WT), vehicle treated (DMSO) or Retro94-treated cells. Samples were harvested at 24, 48, 72, 96, 120 and 144 hpi. […] Nuclei labeled with DAPI (blue). Scale bars: 10 μm. FIG. 3C is a growth curve analysis of HCMV (MOI=0.05) in DMSO control (DMSO) or Retro94-treated cells. Samples were harvested at 3, 6, 9, 12 and 15 dpi. Asterisks indicate change of media with fresh Retro94. […] Bright field images of cell monolayers at 4 days post treatment are shown below graph. Brefeldin A was included as a positive control for cell death. Values in FIGS. 3A and 3C are from one representative experiment.
Normal human dermal fibroblasts, HDFs (Cell Applications Inc. 106-05N), and normal human lung fibroblasts, MRC-5 cells (ATCC CCL-171) were maintained in Dulbecco's modified Eagle's medium (DMEM) (Lonza). Human retinal pigmented epithelial cells (ARPE-19), maintained in DMEM/Ham's F12 (1:1 mix) (Lonza), human embryonic lung fibroblasts (HEL) and mouse embryonic fibroblasts (NIH 3T3), maintained in DMEM (Lonza) were obtained (Spector D J, Yetming K. Virology. 2010; 407(2):171-7; Spector D J. Virology. 2015, 476:345-54). All media was supplemented with 10% fetal bovine serum, 100 U/ml penicillin and 100 µg/ml streptomycin, and 2 mM GlutaMAX (Gibco). Cells were maintained at 37° C. with 5% CO2. […]

The subject of the next data set is HCMV. In words: HCMV single-step growth curve / virus titer analysis (MOI=3). The class given is cell-based, Human cytomegalovirus (HCMV). The following applies: Human betaherpesvirus 5; for pEC50: MOI=3, harvested at 96 hpi (FIG. 9). Here is the method:
Infections were done at an MOI of 0.05 for multi-step growth curves and MOI 3 for single-step growth curves. Infections were done on NHDFs unless otherwise noted. Virus was incubated with cells for 2 hours before addition of fresh media. For growth curve analyses, virus was harvested at the indicated time-points for each experiment by scraping the cells into the medium, sonicating 10 times with 1 second pulses, vortexing for 15 seconds, and centrifuging at 13,000 rpm for 10 min. Supernatants were collected, aliquoted and flash-frozen in liquid nitrogen before storage at −80° C.
(§1) For MCMV growth curve analysis, samples were titrated on NIH 3T3 cells and titers were calculated using the 50% tissue culture infective dose method. Both HCMV virus stocks and samples for growth curves were titrated by serial dilutions on MRC5 cells and quantified by the immunological detection of immediate-early proteins as previously described (Britt W J. Human cytomegalovirus: propagation, quantification, and storage. Curr Protoc Microbiol. 2010; Chapter 14: Unit 14E.3). The numbers of stained nuclei were acquired on a Nikon Eclipse Ti Inverted microscope and fluorescent nuclei were quantified using the NIS Elements Software. Images of viral foci from infection of ARPE19 cells were also acquired on Eclipse Ti Inverted microscope. The number and size of foci were quantified using NIS Elements software.
^1H NMR spectra were recorded on a 500 MHz Bruker spectrometer (Billerica, Mass.) using tetramethylsilane (TMS) as the internal reference. The following abbreviations were used to designate chemical shift multiplicities: s=singlet, d=doublet, dd=double doublet, t=triplet, dt=doublet of triplet, m=multiplet. Mass Spec analysis was performed on 4000 Q trap hybrid triple quadrupole/linear ion trap instrument (Applied Biosystems/MDS Sciex) at the proteomic facility at Penn State Hershey Cancer Institute, Hershey, Pa. Thin-layer chromatography (TLC) was on aluminum-supported, precoated silica gel plates (EM Industries, Gibbstown, N.J.). 5-(2-methyl-3-thiazol-4-yl)-2-thiophencarboxaldehyde was purchased from MAYBRIDGE-Thermo Fisher (Cornwall, UK). All other starting materials were obtained from Aldrich Chemical Co. (Milwaukee, Wis.) and used without further purification. Retro94 was added to cells at 2 hpi at a concentration of 10 μM, unless otherwise indicated.

Another data set deals with MCMV. In words: Viral titers of MCMV-infected fibroblasts. Format: cell-based, mouse. Particulars: 6 dpi (FIG. 12A). On the procedure:
FIG. 7A is a graph showing viral titers at 15 dpi of fibroblasts infected with various strains of HCMV (MOI=0.05) and treated with DMSO or Retro94 at 2 hpi. Media was changed and fresh Retro94 was added at 6 dpi. Bright field images representing CPE of above infections shown at right. FIG. 7B show HCMV-infected ARPE-19 cells (TB40, MOI=3) at 21 dpi treated with DMSO or Retro94 ([…]). Infected cells detected by monitoring mCherry (red) expressed by TB40 virus. Scale bars: 1 mm. The table below images show number of foci detected, average area and standard error of the mean. P<0.00001. […]
as §1, with “Images of viral foci from infection of ARPE19 cells were also acquired on Eclipse Ti Inverted microscope.” left out

Another data set relates to EBV. In words: EC50 against other herpesviruses: EBV. Particulars: below the lowest concentration tested (FIG. 10B). The class given is cell-based. From the text: (§2) FIGS. 10A-10B show data to provide support for Retro94 and derivatives being effective against other herpesviruses. […] Samples were harvested at 24 hpi. Representative data shown are from independent replicates. FIG. 10B provides a table showing low nanomolar EC50 values of Retro94F against other herpesviruses.

Another data set deals with KSHV. In words: EC50 against other herpesviruses: KSHV. Format: cell-based. The following applies: below the lowest concentration tested (FIG. 10B).
Source text: as §2

Data set [1] relates to range of viruses from diverse families. In words: EC50 against non-herpesviruses. Format: cell-based. The following applies: FIG. 11A. From the text:
(§3) FIG. 11A provides a table showing EC50 values of Retro94F against a range of viruses from diverse families. […] Samples were harvested at 24, 48 and 72 hpi. Data shown is from one independent replicates.

Another data set relates to Zika virus. In words: Growth curve analysis of Zika virus. Format: cell-based. Particulars: MOI=5; 24, 48 and 72 hpi.
Source text: as §3

Data set [2] in a line: Tolerability in mice (adverse effects, creatinine, BUN). Format: in vivo, C57BL/6 mice. On the procedure:
FIGS. 13A-13B provides data to support Retro94F showing no overt toxicity in mice. FIGS. 13A and 13B, Mice were treated with […] Retro-2.1 or vehicle control one hour prior to infection with 2×10^4 PFU MuPyV, then daily until day 4 p.i.
While we obtained good results in tissue culture, developing animal models to test the inhibitors was undertaken to allow for studies to test both the properties of the compounds in a host as well as their efficacy against viruses. […] Thus, at least two mouse infection models in which to show efficacy of the compounds against infection in a host organism is provided. Administration of Retro94F to mice to monitor for potential adverse effects of the compound was undertaken. These initial studies have shown that Retro94F is well tolerated by the mice. For these studies, C57BL/6 mice were injected intraperitoneally once daily with 250 μg of Retro94F or vehicle control in 250 μl of 0.9% saline. […] Thus, the inhibitors appear to be well tolerated by mice.

The next data set concerns mouse polyomavirus. In words: Immune response of mice challenged with mouse polyomavirus. Format: in vivo, B6 mice. From the text:
(A-E) B6 mice were infected via hind footpads with 2×10^5 PFU of MuPyV. FIGS. 14A and 14B show the results of the percent of immune cell populations in the spleen (FIG. 14A) and kidney (FIG. 14B) analyzed at day 8 post infection between vehicle- or Retro94F-treated mice. […] FIGS. 14D-14E show the phenotype of MuPyV-specific CD8 T cells, analyzed at day 8 or day 30 post infection. KLRG1hi CD127lo (FIG. 14D) cells are short-lived effector cells, while KLRG1lo CD127hi (FIG. 14E) cells are memory-precursor effector cells.
Thus, the inhibitors appear to be well tolerated by mice.

pEC50, pIC50: −log10 of the molar value.

Regarding `C[C@H]1CCC/C=C/[C@@H]2C[C@H](O)C[C@H]2[C@H](O)/C=C/C(=O)O1` [Brefeldin A, reference compound], the “cells remaining in the monolayer” value in the data set with cells is reported as “very few cells in the monolayer remained”.
`Cc1nc(-c2ccc(C3N(C)c4ccc([N+](=O)[O-])cc4C(=O)N3c3ccccc3)s2)cs1` (centres unmarked) [DABL-NM, 6-Nitro-1-methyl-2-(5-(2-methylthiazol-4-yl)thiophen-2-yl)-3-phenyl-2,3-dihydroquinazolin-4(1H)-one] showed a pEC50 with HCMV of roughly 7.70.
The molecule `Cc1nc(-c2ccc(C3N(C)c4ccc(F)cc4C(=O)N3c3ccccc3)s2)cs1` (centres unmarked) [Retro94F, 6-Fluoro-1-methyl-2-(5-(2-methylthiazol-4-yl)thiophen-2-yl)-3-phenyl-2,3-dihydroquinazolin-4(1H)-one] showed a pEC50 with HCMV of roughly 7.70. Also, the pIC50 in the data set on HCMV (added at 2 hpi, MOI 3, 96 hpi, read-out: IC50 (HCMV titers)) was roughly 7.82. The “inhibition of replication of the mouse equivalent of CMV in culture” value in the data set on MCMV was determined as 99%. In the data set with EBV, the “EC50 (EBV)” value is listed as “low naonmolar range”. Besides, in the data set with KSHV, the “EC50 (KSHV)” value is “low naonmolar range”. Moreover, the “EC50 against other viruses” value in data set [1] is on record as “high nanomolar to low micromolar range”. Also, the “inhibition of Zika virus infection” value with Zika virus is on record as “approximately 90%”. The adverse effects entry in [2] (250 μg intraperitoneally once daily for 14 straight days) is recorded as “no apparent adverse effects”. For the same molecule, the “kidney function (creatinine and BUN levels)” value in data set [2] (treated mice, day 4 and day 30 p.i.) is on record as “did not adversely affect kidney function”. For the same molecule, the signs of distress result with mouse polyomavirus (challenge with mouse polyomavirus after treatment) was “no signs of distress”. Moreover, the “CD8 T cell response to the virus” value in the data set with mouse polyomavirus (day 8 or day 30 post infection) is “did not alter”. Also, in the data set on mouse polyomavirus (day 8 post infection), the “levels of immune cells (spleen, kidney)” value was “equivalent levels of immune cells as control treatment”.
